Reference: BindingDB's records for patent US20250074895 (Blueprint Medicines, 2025)

Legend:
[1] = target: Cyclin-dependent kinase/G2/mitotic-specific cyclin- 1 (Homo sapiens, UniProt P06493); experiment: Biochemical CDK Inhibition Assay
Procedure: (§1) nhibitory effects of the compounds of the disclosure were measured in biochemical assays that measure the enzymatic phosphorylation activity of CDK enzyme in complex of Cyclin proteins phosphorylates 7.5 micromolar fluorescently labelled peptide substrate, 5-FAM-QSPKKG-CONH2, (FL-Peptide 18, Perkin Elmer, 760362) in the presence of adenosine-5′-triphosphate (ATP) and varying concentrations of the test compound in 100 mM 2-[4-(2-hydroxyethyl)piperazin-1-yl]ethanesulfonic acid (HEPES), pH 7.5, 10 mM MgCl2, 0.015% Brij-35, 1 mM dithiothreitol (DTT), 1.0% dimethylsulfoxide (DMSO). Assays were performed at 1.0 mM ATP or at ATP Km of the CDK enzymes in complex with Cyclin proteins. Reactions proceeded until between 10% to 20% total peptides were phosphorylated at room temperature (25° C.) and were terminated with 35 mM 2,2′,2″,2′″-(ethane-1,2-diyldinitrilo)tetraacetic acid (EDTA). Product was detected using the Caliper mobility shift detection method where the phosphorylated peptide (product) and substrate were electrophoretically separated and measured. Percent activity was plotted against log concentration of compound and points to generate an apparent IC50. The following CDK enzymes in complex with different cyclin proteins were used in these assays:CDK1/Cyclin B1, GST-tag (BPS, 40454), 1.5 nM used in the assayCDK2/Cyclin E (Eurofins, 14-475), 1.25 nM used in the assays

[2] = target: Cyclin-dependent kinase 2/G1/S-specific cyclin-E1 (Homo sapiens, UniProt P24941); experiment: Biochemical CDK Inhibition Assay
Procedure: as §1

Cyclin-dependent kinase/G2/mitotic-specific cyclin- 1, sequence (P06493 whole entry): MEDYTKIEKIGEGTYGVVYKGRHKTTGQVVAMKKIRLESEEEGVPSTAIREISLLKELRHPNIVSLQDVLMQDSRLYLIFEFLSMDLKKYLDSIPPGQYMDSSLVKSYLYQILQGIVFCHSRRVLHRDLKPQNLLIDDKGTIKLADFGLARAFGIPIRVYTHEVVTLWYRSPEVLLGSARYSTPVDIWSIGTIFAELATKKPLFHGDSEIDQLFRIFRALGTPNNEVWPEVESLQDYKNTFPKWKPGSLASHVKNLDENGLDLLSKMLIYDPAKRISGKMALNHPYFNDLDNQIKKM
Cyclin-dependent kinase/G2/mitotic-specific cyclin- 1, sequence (P14635 whole entry, further chain): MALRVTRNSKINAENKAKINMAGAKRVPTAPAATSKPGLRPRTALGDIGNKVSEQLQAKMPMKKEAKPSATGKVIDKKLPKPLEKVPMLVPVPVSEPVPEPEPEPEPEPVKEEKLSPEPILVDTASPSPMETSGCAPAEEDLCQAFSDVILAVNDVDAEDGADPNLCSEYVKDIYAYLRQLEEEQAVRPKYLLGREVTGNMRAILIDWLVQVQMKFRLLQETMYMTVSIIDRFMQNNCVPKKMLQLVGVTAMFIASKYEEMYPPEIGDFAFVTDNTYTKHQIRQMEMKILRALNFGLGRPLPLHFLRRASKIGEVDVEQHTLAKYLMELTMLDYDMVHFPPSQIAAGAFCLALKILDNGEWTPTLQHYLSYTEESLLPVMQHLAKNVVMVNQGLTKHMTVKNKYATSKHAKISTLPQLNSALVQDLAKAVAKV

IC50 [1] [nM]	IC50 [2] [nM]	Structure (SMILES)
< 100	< 10	CC1(NC(=O)O[C@@H]2CC[C@H](c3cc(Nc4cnc(F)cn4)n[nH]3)C2)CC1 [US20250074895, Compound 31]
> 500	< 10	CN(C)c1cnc(Nc2cc([C@H]3CC[C@@H](OC(=O)NC4(C)CC4)C3)[nH]n2)cn1 [US20250074895, Compound 32]
< 100	< 10	CC1(NC(=O)O[C@@H]2CC[C@H](c3cc(Nc4ccnc(C(F)F)n4)n[nH]3)C2)CC1 [US20250074895, Compound 33]
300	< 10	Cc1nccc(Nc2cc([C@H]3CC[C@@H](OC(=O)NC4(C)CC4)C3)[nH]n2)n1 [US20250074895, Compound 34]
> 500	< 10	CC1(NC(=O)O[C@@H]2CC[C@H](c3cc(Nc4cnc(S(C)(=O)=O)cn4)n[nH]3)C2)CC1 [US20250074895, Compound 35]
< 100	< 10	CC1(NC(=O)O[C@@H]2CC[C@H](c3cc(Nc4cnc(C(F)F)cn4)n[nH]3)C2)CC1 [US20250074895, Compound 36]
300	< 10	COCc1cnc(Nc2cc([C@H]3CC[C@@H](OC(=O)NC4(C)CC4)C3)[nH]n2)cn1 [US20250074895, Compound 37]
> 500	15	CC1(NC(=O)O[C@@H]2CC[C@H](c3cc(Nc4cccnn4)n[nH]3)C2)CC1 [US20250074895, Compound 38]
300	< 10	CC1(NC(=O)O[C@@H]2CC[C@H](c3cc(Nc4ccncn4)n[nH]3)C2)CC1 [US20250074895, Compound 39]
> 500	15	Cc1cncnc1Nc1cc([C@H]2CC[C@@H](OC(=O)NC3(C)CC3)C2)[nH]n1 [US20250074895, Compound 40]
> 500	< 10	CC1(NC(=O)O[C@@H]2CC[C@H](c3cc(Nc4cnc(Cl)cn4)n[nH]3)C2)CC1 [US20250074895, Compound 41]
> 500	25	CC1(NC(=O)O[C@@H]2CC[C@H](c3cc(Nc4nccnn4)n[nH]3)C2)CC1 [US20250074895, Compound 42]
300	< 10	CNc1nc(Nc2cc([C@H]3CC[C@@H](OC(=O)NC4(C)CC4)C3)[nH]n2)cnc1C#N [US20250074895, Compound 43]
< 100	< 10	CN(C)c1nncc(Nc2cc([C@H]3CC[C@@H](OC(=O)NC4(C)CC4)C3)[nH]n2)n1 [US20250074895, Compound 44]
> 500	< 10	COc1cnc(Nc2cc([C@H]3CC[C@@H](OC(=O)NC4(C)CC4)C3)[nH]n2)c(C)n1 [US20250074895, Compound 45]
300	< 10	CC1(NC(=O)O[C@@H]2CC[C@H](c3cc(Nc4ccnc(CO)n4)n[nH]3)C2)CC1 [US20250074895, Compound 46]
> 500	< 10	Cc1nc(CO)cnc1Nc1cc([C@H]2CC[C@@H](OC(=O)NC3(C)CC3)C2)[nH]n1 [US20250074895, Compound 47]
300	< 10	CNc1nccc(Nc2cc([C@H]3CC[C@@H](OC(=O)NC4(C)CC4)C3)[nH]n2)n1 [US20250074895, Compound 48]
< 100	< 10	CC1(C)CCN1C(=O)O[C@@H]1CC[C@H](c2cc(Nc3cnc(CO)cn3)n[nH]2)C1 [US20250074895, Compound 49]
< 100	< 10	C[C@@H](O)c1cnc(Nc2cc([C@H]3CC[C@@H](OC(=O)N4CCC4(C)C)C3)[nH]n2)cn1 [US20250074895, Compound 51]

Further lines, the molecule ahead of its results:

Structure (SMILES)	IC50 [1] [nM]	IC50 [2] [nM]
CC1(NC(=O)O[C@@H]2CC[C@H](c3cc(Nc4cnc(C#N)cn4)n[nH]3)C2)CC1 [US20250074895, Compound 1]	300	< 10
CC1(NC(=O)O[C@@H]2CC[C@H](c3cc(Nc4cc(C#N)ccn4)n[nH]3)C2)CC1 [US20250074895, Compound 2]	< 100	< 10
CC1(NC(=O)O[C@@H]2CC[C@H](c3cc(Nc4ccnc(C#N)n4)n[nH]3)C2)CC1 [US20250074895, Compound 3]	< 100	< 10
Cc1nc(C#N)cnc1Nc1cc([C@H]2CC[C@@H](OC(=O)NC3(C)CC3)C2)[nH]n1 [US20250074895, Compound 4]	> 500	< 10
CC1(NC(=O)O[C@@H]2CC[C@H](c3cc(Nc4cc(C#N)cnn4)n[nH]3)C2)CC1 [US20250074895, Compound 5]	300	< 10
Cc1nccnc1Nc1cc([C@H]2CC[C@@H](OC(=O)NC3(C)CC3)C2)[nH]n1 [US20250074895, Compound 6]	> 500	< 10
Cc1cncc(Nc2cc([C@H]3CC[C@@H](OC(=O)NC4(C)CC4)C3)[nH]n2)n1 [US20250074895, Compound 7]	< 100	< 10
CC1(NC(=O)O[C@@H]2CC[C@H](c3cc(Nc4cnc(OC(F)F)cn4)n[nH]3)C2)CC1 [US20250074895, Compound 8]	300	< 10
Cc1nc(Nc2cc([C@H]3CC[C@@H](OC(=O)NC4(C)CC4)C3)[nH]n2)cnc1C#N [US20250074895, Compound 9]	< 100	< 10
CC1(NC(=O)O[C@@H]2CC[C@H](c3cc(Nc4ccnc(C(F)(F)F)n4)n[nH]3)C2)CC1 [US20250074895, Compound 10]	< 100	< 10
CC1(NC(=O)O[C@@H]2CC[C@H](c3cc(Nc4cncc(C#N)n4)n[nH]3)C2)CC1 [US20250074895, Compound 11]	< 100	< 10
CC1(NC(=O)O[C@@H]2CC[C@H](c3cc(Nc4ccc(C#N)cn4)n[nH]3)C2)CC1 [US20250074895, Compound 12]	300	< 10
CC1(NC(=O)O[C@@H]2CC[C@H](c3cc(Nc4ccccn4)n[nH]3)C2)CC1 [US20250074895, Compound 13]	> 500	15
Cc1c(C#N)ccnc1Nc1cc([C@H]2CC[C@@H](OC(=O)NC3(C)CC3)C2)[nH]n1 [US20250074895, Compound 14]	> 500	< 10
Cc1cc(C#N)cc(Nc2cc([C@H]3CC[C@@H](OC(=O)NC4(C)CC4)C3)[nH]n2)n1 [US20250074895, Compound 15]	< 100	< 10
CC1(NC(=O)O[C@@H]2CC[C@H](c3cc(Nc4cc(C#N)ncn4)n[nH]3)C2)CC1 [US20250074895, Compound 16]	< 100	< 10
CC1(NC(=O)O[C@@H]2CC[C@H](c3cc(Nc4cnc(C(C)(C)O)cn4)n[nH]3)C2)CC1 [US20250074895, Compound 17]	300	< 10
CC1(NC(=O)O[C@@H]2CC[C@H](c3cc(Nc4ccc(C#N)nn4)n[nH]3)C2)CC1 [US20250074895, Compound 18]	> 500	15
Cc1cnc(C#N)nc1Nc1cc([C@H]2CC[C@@H](OC(=O)NC3(C)CC3)C2)[nH]n1 [US20250074895, Compound 19]	300	< 10
Cc1cc(C#N)cnc1Nc1cc([C@H]2CC[C@@H](OC(=O)NC3(C)CC3)C2)[nH]n1 [US20250074895, Compound 20]	> 500	< 10
C[C@H](O)c1cnc(Nc2cc([C@H]3CC[C@@H](OC(=O)NC4(C)CC4)C3)[nH]n2)cn1 [US20250074895, Compound 21]	300	< 10
C[C@@H](O)c1cnc(Nc2cc([C@H]3CC[C@@H](OC(=O)NC4(C)CC4)C3)[nH]n2)cn1 [US20250074895, Compound 22]	300	< 10
CNc1nncc(Nc2cc([C@H]3CC[C@@H](OC(=O)NC4(C)CC4)C3)[nH]n2)n1 [US20250074895, Compound 23]	< 100	< 10
COc1cncc(Nc2cc([C@H]3CC[C@@H](OC(=O)NC4(C)CC4)C3)[nH]n2)n1 [US20250074895, Compound 24]	300	< 10
COc1nccc(Nc2cc([C@H]3CC[C@@H](OC(=O)NC4(C)CC4)C3)[nH]n2)n1 [US20250074895, Compound 25]	300	< 10
CC1(NC(=O)O[C@@H]2CC[C@H](c3cc(Nc4cnccn4)n[nH]3)C2)CC1 [US20250074895, Compound 26]	300	< 10
Cc1cnc(Nc2cc([C@H]3CC[C@@H](OC(=O)NC4(C)CC4)C3)[nH]n2)cn1 [US20250074895, Compound 27]	300	< 10
COc1cnc(Nc2cc([C@H]3CC[C@@H](OC(=O)NC4(C)CC4)C3)[nH]n2)cn1 [US20250074895, Compound 28]	300	< 10
CC1(NC(=O)O[C@@H]2CC[C@H](c3cc(Nc4cncc(C5CC5)n4)n[nH]3)C2)CC1 [US20250074895, Compound 29]	< 100	< 10
CC1(NC(=O)O[C@@H]2CC[C@H](c3cc(Nc4cnc(C(F)(F)F)cn4)n[nH]3)C2)CC1 [US20250074895, Compound 30]	300	< 10
